Test system: anti-Fy^b monoclonal antibody (LM447)
Assay: Phage ELISA (capture ELISA) of phage-peptides on coated anti-Fy^b antibody
Assay type: binding, Murine
Details: FIG. 1; LM447 coated from 10 μg/ml stock; phage culture supernatant; OD450 greater than 0.1 considered positive; 20 phage assayed
Protocol: The ability of the recovered phage-peptides to react with the antibodies used in their selection was confirmed by capture ELISA. A 10 μg/ml stock of appropriate monoclonal antibody was prepared in ELISA coating buffer and 150 μl aliquots were added to wells of an Immulon 4 ELISA plate, and then incubated overnight at 4° C. Unbound antibody was discarded and the wells were blocked with 350 μl of blocking buffer (0.1M NaHCO3/3% skimmed milk powder) for 1 hour at 4° C. The wells were washed three times with 300 μl TBS/0.5% Tween 20 and 100 μl of selected phage culture supernatants were added to appropriate wells for 1 hour at room temperature. Unbound phage were removed and the wells washed six times with 300 μl TBS/0.5% Tween 20. A 1:5000 dilution of horseradish peroxidase (HRP) conjugated anti-M13, secondary antibody was prepared in blocking buffer and 100 μl aliquots added to each well. Following incubation for 1 hour at room temperature the wells were washed six times with 300 μl TBS/0.5% Tween 20. To develop the reactions, a 200 μl aliquot of o-phenylenediamine dihydrochloride (OPD) substrate (Sigma) was added to each well. The absorbance at 450 nm was measured, following incubation at room temperature for 1 hour, by a microplate ELISA reader. An OD450 signal greater than 0.1 was considered positive.
The phage ELISA results confirmed the binding of the anti-Fy^b monoclonal, LM447. A 10 μg/ml stock of this monoclonal antibody was prepared in ELISA coating buffer and 150 μl aliquots were added to wells of an Immulon 4 ELISA plate, and then incubated overnight at 4° C. Unbound antibody was discarded and the wells were blocked with 350 μl of blocking buffer for 1 hour at 4° C. The wells were washed three times with 300 μl TBS/0.5% Tween 20 and 100 μl of selected phage culture supernatants were added to appropriate wells for 1 hour at room temperature. Unbound phage were removed and the wells washed six times with 300 μl TBS/0.5% Tween 20. A 1:5000 dilution of horseradish peroxidase (HRP) conjugated anti-M13, secondary antibody was prepared in blocking buffer and 100 μl aliquots added to each well. Following incubation for 1 hour at room temperature the wells were washed six times with 300 μl TBS/0.5% Tween 20. To develop the reactions, 200 μl aliquots of o-phenylenediamine dihydrochloride (OPD) substrate (Sigma) was added to each well. The absorbance at 450 nm was measured following incubation at room temperature for 1 hour. The absorbance values at 450 nm, confirmed the binding of 14 (Peptides Fyb1, Fyb2, Fyb4-5, Fyb7-13, Fyb25, 27 & 28) of the 20 phage assayed (see FIG. 1).

Substance	Phage ELISA binding of phage-peptide to anti-Fy^b antibody LM447 (absorbance at 450 nm)
MFQEHTPAFGGL [Fyb7]	phage ELISA signals equally as strong as Peptides Fyb12 and Fyb13
MYQDTPPPRKNV [Fyb1]	phage ELISA signals equally as strong as Peptides Fyb12 and Fyb13
MFQPTHWGTRLS [Fyb9]	phage ELISA signals equally as strong as Peptides Fyb12 and Fyb13

Same assay, conditions: FIG. 1; LM447 coated from 10 μg/ml stock; phage culture supernatant; OD450 greater than 0.1 considered positive; 20 phage assayed; listed as Fybll

Substance	Phage ELISA binding of phage-peptide to anti-Fy^b antibody LM447 (absorbance at 450 nm)
MVQELPFVLRSK [Fyb11]	phage ELISA signals equally as strong as Peptides Fyb12 and Fyb13

Test system: anti-RhD monoclonal antibody T27 (LHM169/81)
Assay: Biopanning of phage-peptide libraries with anti-RhD T27
Assay type: binding, Human
Details: not given
From the text: (§1) Three different phage libraries from New England Biolabs. (Ph.D. 7 and Ph.D. 12 displaying linear 7- and 12-mer peptides, respectively and Ph.D. C7C displaying 7-mer peptides constrained by a disulphide bridge at their termini) and a linear 15mer library (kindly provided by Prof. George P. Smith, University of Missouri) were used in biopanning experiments with 10 different monoclonal antibodies and a polyclonal preparation (Table 1).
(§2) For each target antibody/library combination, a separate well of a 96-well Immulon 4 flat-bottomed ELISA plate (Thermo Labsystems) was coated with 5 μg of antibody in 150 μl ELISA coating buffer (15 mM Na2CO3, 35 mM NaHCO3, pH9.6). Plates were sealed and incubated at 4° C. overnight. Unbound antibody was discarded and 350 μl of blocking buffer (0.1M NaHCO3/3% skimmed milk powder) was added to each well. Plates were sealed and incubated for 1 hour at 4° C. The blocking buffer was removed and the wells were washed six times with 300 μl TBS/0.1% Tween 20. Approximately 2×10^11 plaque forming units (pfu) in 100 μl TBS/0.1% Tween 20 were added to each well and the plates were incubated at room temperature for 1 hour. Wells were washed ten times with 300 μl TBS/0.1% Tween 20. Bound phage were eluted by incubation with 100 μl of 0.2M glycine-HCl/BSA, pH2.2 (1 mg/ml) for 10 minutes, then neutralised with 15 μl of 1M Tris-HCL (pH9.1). An aliquot of the Round 1 eluate was removed and titred. The remainder of the eluted phage were amplified by infection of E. coli ER2538 cells for 4.5 hours at 37° C. The cultures were centrifuged for 10 minutes at 10,000 rpm at 4° C. The supernatants were recovered, ⅙ volume PEG/NaCl (20% polyethylene glycol 8000; 2.5M NaCl) added, then incubated overnight at 4° C. The PEG-precipitated phage were centrifuged at 10,000 rpm for 15 minutes at 4° C. The supernatant was removed and the phage pellet resuspended in 200 μl TBS. Two further rounds of panning were undertaken and approximately 2×10^11 pfu of the Round 2 or Round 3 amplified eluates were used as input phage. Round 3 eluates were titrated but not amplified. Individual plaques were amplified and subjected to PCR amplification, prior to DNA sequence analysis. The specificity of peptide-antibody binding was subsequently determined using both phage ELISA and SPOTs techniques.

Substance	Panning Antibody (antibody that selected the phage-peptide in biopanning)
RhD 1 (GLFKIQP)	RhD T27
RhD 8 (SNVPLHWILSPR)	RhD T27
RhD 14 (DRRIFWWSLRSAPGA)	RhD T27
RhD 13 (VIDWLLCPRGFSACM)	RhD T27
RhD 12 (HQNPWLLWPRGF)	RhD T27
RhD 5 (TPGSGQF)	RhD T27
RhD 4 (HTALSTS)	RhD T27
RhD 9 (WHFEWWRATPSG)	RhD T27
RhD 6 (FSPNNSETTNYT)	RhD T27
RhD 2 (LGHHNPH)	RhD T27
RhD 3 (NLLPAKL)	RhD T27
RhD 7 (TTVPDTWVLFPR)	RhD T27
RhD 11 (DVYDTRPYHGFM)	RhD T27
RhD 15 (LHAWHRNTIGWWIGF)	RhD T27
RhD 10 (NYPAVVSNSLLA)	RhD T27

Test system: anti-Fy^b monoclonal antibody (LM447)
Assay: SPOTs membrane hybridisation with anti-Fy^b antibody
Assay type: binding, Murine
Details: FIG. 2; 20 Fyb peptides in duplicate; CPep75 (Spot 21) positive control; 2 μg/ml primary antibody; chemiluminescence
Protocol: (§3) The peptide mimotopes were synthesised by the SPOT method (Frank; 1992) using F-moc chemistry. The peptides were anchored to an amino-PEG derivatised cellulose membrane (Intavis AG) and synthesised as discrete spots. Synthesis was by stepwise elongation of the peptide chain from C-terminus to the N-terminus, by manual pipetting of the respective amino acids, according to the Sigma Genosys protocol. Incubation times were modified when using Intavis AG membranes. After addition of the final amino acid, the terminal residues and side chains of the peptides were deprotected and the membrane was washed with methanol; air dried and then stored at −20° C. prior to use.
(§4) A membrane was placed in a 50 ml Falcon tube and blocked overnight at 4° C. with gentle agitation in TBS/0.25% Tween 20/5% skimmed milk powder. A 2 μg/ml dilution of the primary (1°) antibody (monoclonal or polyclonal) was prepared in TBS/0.25% Tween20/5% skimmed milk powder before incubation with the membrane for 1 hour at room temperature on a spiral rotor. Following 4 washes, each for 5 minutes with 20 ml of TBS/0.25% Tween20, the membrane was incubated for 1 hour at room temperature with a 1/5000 dilution of the secondary (2°) antibody, prepared in TBS/0.25% Tween20/5% skimmed milk powder. Peroxidase labelled rabbit anti-mouse IgG (Sigma) was used for the detection of the murine anti-Fy^a (LM487) and anti-Fy^b (LM447) 1° antibodies and peroxidase labelled goat anti-human IgG (Pharmacia) for the detection of the human 1° antibodies. Following 4 washes, each for 5 minutes with 20 ml of TBS/0.25% Tween20, the membrane was blotted to remove excess fluid. Bound antibody was detected by chemiluminescence. ECL detection reagents (Amersham Biosciences) were mixed and overlaid on the membrane for 2 minutes. The chemiluminescent substrate was removed and the membrane blotted to remove excess fluid. Positive spots were visualised following exposure to Hyperfilm ECL (Amersham Biosciences) for a series of short incubation times (5 seconds to 10 minutes).

Substance	SPOTs binding of anti-Fy^b antibody LM447 to membrane-synthesised peptide
MVQELPFVLRSK [Fyb11]	failed to react
PDGDYDANLEAAAP [CPep75, 14-mer immunisation peptide used in the development of the LM447 antibody, reference compound]	Binding was also observed
TFQYLDPPPFTP [Fyb13]	successfully bound
MFQEHTPAFGGL [Fyb7]	failed to react
MYQDTPPPRKNV [Fyb1]	failed to react
MFQPTHWGTRLS [Fyb9]	failed to react
TFQPRSWPNIDL [Fyb12]	successfully bound

Same assay, conditions: FIG. 5; Spots 1-37 = Fya 1-37; Spots 38-40 = Fya17, Fya25, Fya35; Spot 41 Cpep75, 42 Cpep76, 43 CPep118, 44 Fyb1; membranes hybridised in parallel with both antibodies

Substance	Reciprocal SPOTs hybridisation: binding of anti-Fy^b monoclonal antibody
PDGDYDANLEAAAP [CPep75, 14-mer immunisation peptide used in the development of the LM447 antibody, reference compound]	capable of binding the anti-Fy^b antibody

Same assay, conditions: FIG. 6; 16 peptides Fyb72-87; signal dramatically lower than positive control CPep75 (Spot 17)

Substance	SPOTs binding of anti-Fy^b antibody LM447 to consensus sequence-derived substituted peptides
MFQPDNPPTKNP [Fyb84]	capable of binding
MFQPDNPPTKNV [Fyb85]	capable of binding

Test system: anti-RhD monoclonal antibody T22 (LHM 169/80)
Assay: Biopanning of phage-peptide libraries with anti-RhD T22
Assay type: binding, Human
Details: not given
From the text: as §1, §2

Substance	Panning Antibody (antibody that selected the phage-peptide in biopanning)
RhD 21 (WGLWWTG)	RhD T22
RhD 18 (WGLWSTP)	RhD T22
RhD 28 (NDYSDSNQVPAS)	RhD T22
RhD 24 (FHWWPRTQDPHR)	RhD T22
RhD 17 (WGIWWNN)	RhD T22
RhD 19 (WVHLQSP)	RhD T22
RhD 30 (HLSSRHLFVPLS)	RhD T22
RhD 31 (TITDCYPICVSP)	RhD T22
RhD 23 (DSRWLLP)	RhD T22
RhD 33 (AMDCFPICLWNP)	RhD T22

Test system: anti-RhE monoclonal antibody E0002
Assay: SPOTs membrane hybridisation with anti-RhE monoclonal E0002
Assay type: binding, Human
Details: FIG. 9; 36 RhE peptide mimotopes; CPep75 (Spot 37), CPep76 (Spot 38) negative controls
Protocol: as §3, §4
The RhD, RhE and Rhe peptide mimotopes (see Tables 4 & 5) were synthesised by SPOTs and hybridisation of the membranes was undertaken with the appropriate antibodies (Table 1). FIGS. 7-10 show examples of peptide mimotopes reacting specifically with the antibody originally used in their selection.

Substance	SPOTs binding of anti-RhE monoclonal antibody E0002
RhE25: RhE peptide mimotope, Table 5 (GLSYYALITRYLGAA)	Specific binding
